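Briefly, cells in 96-well plates were exposed to five compound concentrations for 48 h, and endpoints were estimated by linear interpolation. TGI denotes the concentration required for complete inhibition of growth.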

Common to all, as to assay: NCI-60 cell line screen, 48 h
The subject of assay [1] is UACC-62 melanoma.
The test system of assay [2] is OVCAR-3 ovarian.
Assay [3] concerns MDA-MB-435.
For assay [4], the system named is CAKI-1 renal.
The subject of assay [5] is BT-549 breast.
Assay [6] deals with SN12C renal.
The subject of assay [7] is SF-539 CNS.
The subject of assay [8] is HCT-116 colon.
The subject of assay [9] is SR leukemia.
The test system of assay [10] is A498 renal.

Consider `Cc1nc(NC(C)(CO)CO)nc(N/N=C/c2ccc(Cl)cc2)c1C(=O)Nc1ccc(Cl)cc1`, for which the TGI in assay [1], in [2], in [3], in [4], in [5] and in assay [6] was above 100 µM in each case. In addition, the TGI in [7] and in [8] was above 100 µM each time.
Regarding `O=C(O)C(Cc1ccccc1)NCc1c(O)ccc2c(-c3ccccc3)cc(=O)oc12` (configuration not stated), the TGI in assay [1], in [2], in assay [3], in [4], in [9] and in assay [6] was above 100 µM in each case. The TGI in assay [7] and in [8] was above 100 µM throughout.
`N#Cc1c(-c2ccc([N+](=O)[O-])cc2)c(C#N)c(=O)n(NS(=O)(=O)c2ccccc2)c1S`: the TGI in assay [1] was 60.3 µM; in assay [3], 81.9 µM; in assay [4], above 100 µM; in [5], 39.2 µM; in assay [6] it was 34.9 µM; in assay [7], 46.1 µM. For the same compound, the TGI in assay [10] is above 100 µM; in [8], 39.8 µM.
Regarding `CC(=O)C(=Cc1cn(C)c(=O)n(C)c1=O)C(C)=O`, the TGI in assay [1] amounted to 148 µM; in assay [2] it was 299 µM; in [4], 224 µM; in assay [6] it was 216 µM; in [7], 209 µM; in [10], 290 µM. In assay [8], this compound had a TGI of 188 µM.
`CCOP(=O)(/C=C/n1cc(C)c(=O)[nH]c1=O)OCC`: the TGI in [1], in assay [2], in assay [3], in assay [4], in [5] and in [6] was above 100 µM throughout. In addition, the TGI in assay [7], in [10] and in assay [8] was above 100 µM throughout.
Regarding `COP(=O)(OC)OCN(C)CC/C=C(\C)CC/C=C(\C)CCC=C(C)C`, the TGI in assay [2] came out at 29.9 µM; in assay [3], 40.2 µM; in assay [4], 33.8 µM; in assay [5], 30 µM; in assay [6] it was 32.1 µM; in assay [7], 30.3 µM. Besides, the TGI in [10] is above 100 µM; in assay [8], 25.9 µM.
With `COC(=O)C1=C(CCCCO[Si](C)(C)C(C)(C)C)NC(=O)N2[C@H](CCOCc3ccccc3)CC[C@@H]12`, the TGI in [1], in [2], in [3], in assay [4], in [5] and in assay [6] was above 100 µM in each case. Besides, the TGI in assay [7], in assay [10] and in assay [8] was above 100 µM throughout.
For `CC1=C(C)C(=O)C(C2=CC(=O)c3ccccc3C2=O)=C(C2=CC(=O)c3ccccc3C2=O)C1=O`, the TGI in [1] is 27.6 µM; in assay [3], 1.19 µM; in assay [4] it was 8.86 µM; in [5], 48.1 µM; in [7] it was above 100 µM; in [10], 50.8 µM. The compound further displayed a TGI in assay [8] above 100 µM.
For `O=c1[nH]c(=O)n(COC(CO)CO)cc1-c1ccccc1`, the TGI in assay [1], in assay [2], in assay [3], in assay [4], in assay [9] and in [6] was above 100 µM throughout. This compound displayed a TGI in [8] above 100 µM.
Regarding `O=c1c2cc(Br)cc(Br)c2[nH]c(=S)n1-c1ccc(N=Nc2ccc(O)c3cccnc23)cc1`, the TGI in assay [2] was 28.5 µM; in [3], above 100 µM; in [4], above 100 µM; in assay [9], above 100 µM; in [6], above 100 µM; in [7], 31.3 µM. For the same compound, the TGI in assay [10] and in [8] was above 100 µM each time.
As to `Nc1[nH]c(=O)nc2c1ncn2C1OC(CO)C(O)C1O` (configuration not stated), the TGI in assay [1], in [2], in assay [3], in assay [4], in assay [5] and in [6] was above 100 µM each time. For the same compound, the TGI in assay [10] and in assay [8] was above 100 µM each time.
Regarding `CCN1CC2(C)CCC(OC)C34C5CC6CCC(O)(C5C(=O)O6)C(C(O)C23)C14` (configuration not stated), the TGI in assay [1], in assay [2], in [3], in [4], in assay [5] and in assay [7] was above 100 µM each time. Further, the TGI in assay [10] and in assay [8] was above 100 µM each time.
`COc1cc2c(cc1O)C1Cc3ccc(OC)c(O)c3C[N+]1(C)CC2` (configuration not stated): the TGI in [1], in assay [3], in [4], in assay [5], in assay [6] and in [7] was above 100 µM throughout. Moreover, the TGI in assay [10] and in [8] was above 100 µM in each case.
On to `C[s+]1c2ccccc2c2ccccc21`, for which the TGI in assay [1], in [2], in assay [9], in assay [6], in assay [7] and in assay [8] was above 100 µM in each case.
`CC1=NN(C(=O)CC(=O)Nc2cccc(C)c2)C(=O)C1N=Nc1ccc(S(=O)(=O)CCOS(=O)(=O)O)cc1` (configuration not stated): the TGI in [1] is 9.34 µM; in assay [2], 14.9 µM; in assay [4], 2.96 µM; in assay [9] it was above 100 µM; in [6] it was 5.51 µM; in assay [7] it was 6.49 µM. Also, the TGI in [10] was determined as 37.1 µM; in assay [8], 12.6 µM.
Regarding `CCC1(c2ccc(N3C(=O)c4cccc5cc([N+](=O)[O-])cc(c45)C3=O)cc2)CCC(=O)NC1=O` (configuration not stated), the TGI is above 100 µM in assay [1]; 56.5 µM in assay [2]; above 100 µM in [3]; 50.9 µM in assay [4]; 38.6 µM in assay [5]; 24.8 µM in assay [6]. The TGI came out at 97.8 µM in assay [10] and 21.6 µM in assay [8].
`CSC(SC)=C(C(=O)c1ccc(Cl)cc1)n1c(=O)sc2cc(Br)ccc21`: the TGI in assay [1], in [2], in assay [3], in assay [4], in [6] and in [7] was above 100 µM throughout. The TGI in [10] and in assay [8] was above 100 µM in each case.
For the compound `CC(C)CCCC(C)[C@H]1CCC(C2C[C@@H](O)[C@@H]3CC(O)[C@@H](O)C[C@]3(CO)C2=O)[C@]1(C)CCO` (some centres not stated), the TGI was 34.5 µM in [1]; 47.9 µM in [2]; above 74.1 µM in assay [6]; 39.6 µM in assay [7]; 48.9 µM in assay [10]; 38.2 µM in [8].
Regarding `COc1cc2c[n+]3c4c(c2c(OC)c1OC)CCCC4CC3` (configuration not stated), the TGI in assay [1], in [2], in assay [3], in assay [4], in assay [10] and in assay [8] was above 100 µM in each case.
Take `COC(=O)c1sc(=O)sc1SCc1cccc(CSc2sc(=O)sc2C(=O)OC)c1`: the TGI was above 100 µM in [1]; above 100 µM in assay [2]; above 100 µM in assay [3]; 93.5 µM in assay [4]; above 100 µM in assay [5]; above 100 µM in [6]. The TGI in assay [10] and in assay [8] was above 100 µM each time.
`NC(=O)CCC(N=c1c2ccccc2n(O)c2ccccc12)C(=O)O` (configuration not stated): the TGI in assay [1], in assay [2], in assay [6], in assay [10] and in assay [8] was above 100 µM throughout.
For `ClC1=NN=C(c2c[nH]c3ccccc23)CC1NCc1ccccc1` (configuration not stated), the TGI in assay [1], in [2], in assay [3], in assay [4], in assay [5] and in assay [6] was above 100 µM in each case. The TGI in assay [7], in assay [10] and in [8] was above 100 µM each time.
On to `COC1(CC[C@@H](C)COC2OC(CO)C(O)C(O)C2O)OC2C[C@H]3[C@@H]4CC[C@H]5C[C@@H](OC6OC(CO)C(OC7OC(CO)C(O)C(O)C7O)C(O)C6OC6OC(C)C(O)C(O)C6O)[C@H](O)C[C@]5(C)[C@H]4CC[C@]3(C)C2[C@@H]1C` (some centres not stated), for which the TGI in assay [1] worked out at 3.45 µM; in assay [2], 3.3 µM; in assay [3], 3.5 µM; in assay [4], 4.29 µM; in assay [9], 16.8 µM; in [6], 3.42 µM. Further, the TGI was 3.34 µM in [7], 3.38 µM in assay [10] and 3.67 µM in assay [8].
For `COc1ccc(-c2ccc(C(=O)C=P(c3ccccc3)(c3ccccc3)c3ccccc3)cc2)cc1`, the TGI in assay [1] stood at 28.9 µM; in assay [2] it was 20.1 µM; in assay [3] it was 30 µM; in [4], 42 µM; in [9] it was 73.6 µM; in [6], 28.5 µM. For the same compound, the TGI was 35.9 µM in [7], 31.9 µM in assay [10] and 32.3 µM in [8].
As to `C/C(=C1\N=C(c2ccccc2)OC1=O)c1ccccc1`, the TGI in assay [1], in assay [2], in assay [3], in [4], in assay [9] and in assay [7] was above 100 µM in each case. Besides, the TGI in assay [10] and in assay [8] was above 100 µM throughout.
In the case of `CC1=C(CO)C(=O)OC(C(C)C2CCC3C4CC5OC56C(O)C(N5CC5)=CC(=O)C6(C)C4CCC23C)C1` (configuration not stated), the TGI in assay [1] was 23.8 µM; in assay [2], 11.7 µM; in assay [9] it was 10.5 µM; in assay [6], 19.5 µM; in [7] it was 14 µM; in assay [10] it was 16.3 µM. In assay [8], this compound came in with a TGI of 12.2 µM.
Turning to `CC(C)(C)C(=O)Nc1c(C=O)ccc2[nH]cnc12`, the TGI in assay [2], in assay [3], in assay [4], in [5], in assay [6] and in assay [7] was above 100 µM each time. Besides, the TGI in assay [10] and in [8] was above 100 µM throughout.
On to `CC(Nc1ccc(Cl)cc1)c1ccncc1` (configuration not stated), for which the TGI in [2], in assay [3], in assay [4], in assay [5], in assay [6] and in assay [7] was above 100 µM throughout. For the same compound, the TGI in assay [10] and in assay [8] was above 100 µM in each case.
Consider `CCOC(=O)c1c(N)sc2c1C(C(=O)OCC)CCCC2` (configuration not stated), for which the TGI in [1] is above 100 µM; in assay [9], above 100 µM; in assay [5], above 100 µM; in assay [6] it was above 100 µM; in [10], 75.8 µM; in assay [8] it was above 100 µM.
For `CCOc1ccc2nc(NC(=O)C(=O)C(C(=O)c3ccccc3F)C3OC(=O)c4ccccc43)sc2c1` (configuration not stated), the TGI in assay [1] is 27.7 µM; in assay [4] it was 75.3 µM; in assay [9], 55.6 µM; in assay [6] it was 54.1 µM; in assay [7], 52.4 µM; in assay [10], above 100 µM. In addition, the TGI in assay [8] came to 31.8 µM.
As to `CCCCCC[C@H]([C@H](C)O)n1cnc2c(N)ncnc21`, the TGI in [1], in assay [2], in assay [3], in assay [4], in assay [9] and in assay [6] was above 100 µM each time. Besides, the TGI in assay [7] and in assay [8] was above 100 µM each time.
